The values below come from ChEMBL document CHEMBL1155409, “Ultrasmall particle of iron oxide--RGD peptidomimetic conjugate: synthesis and characterisation” (Bioorg Med Chem Lett, 2010).

As a reminder, the IC50 is the point on the concentration scale where inhibition reaches its midpoint.

For the test, the target named is Integrin alpha-V/beta-3 (Homo sapiens). The experiment in a line: Inhibition of human Integrin alphaVbeta3 isolated receptors assessed by standard competitive binding assay.
On to `Nc1cc(C[C@H](NS(=O)(=O)c2cccc(C(F)(F)F)c2)C(=O)O)ccc1OCCCc1ccc2c(n1)NCCC2`, for which the IC50 was 0.1 nM.
For `COCCOCCOCCOCC(=O)Nc1cc(C[C@H](NS(=O)(=O)c2cccc(C(F)(F)F)c2)C(=O)O)ccc1OCCCc1ccc2c(n1)NCCC2`, the half-maximal inhibitory concentration (IC50) came out at 0.3 nM.
With `NCCOCCOCCOCCOCCOCCOCC(=O)Nc1cc(C[C@H](NS(=O)(=O)c2cccc(C(F)(F)F)c2)C(=O)O)ccc1OCCCc1ccc2c(n1)NCCC2`, the IC50 was found to be 0.7 nM.
